Assay in all cases: biochemical
Assay type in all cases: binding

Test [1] deals with T1, panel of 442 kinases (Homo sapiens, UniProt P37023).
T1 construct: purchased Ambit Biosciences (scanMAXX KINOMEscan)
The settings on record: ACVRL1; for remaining activity at 1 µM: read-out: % of control at 1 µM.

Test [2] deals with T2, panel of 442 kinases (Homo sapiens, UniProt Q9HC98).
T2 construct: purchased Ambit Biosciences (scanMAXX KINOMEscan)
The following applies: kinase NEK6; for remaining activity at 1 µM: read-out: % of control at 1 µM.

In test [3] the target is T3, panel of 442 kinases (Homo sapiens, UniProt Q13164).
T3 construct: purchased Ambit Biosciences (scanMAXX KINOMEscan)
T3 sequence (Q13164 whole entry): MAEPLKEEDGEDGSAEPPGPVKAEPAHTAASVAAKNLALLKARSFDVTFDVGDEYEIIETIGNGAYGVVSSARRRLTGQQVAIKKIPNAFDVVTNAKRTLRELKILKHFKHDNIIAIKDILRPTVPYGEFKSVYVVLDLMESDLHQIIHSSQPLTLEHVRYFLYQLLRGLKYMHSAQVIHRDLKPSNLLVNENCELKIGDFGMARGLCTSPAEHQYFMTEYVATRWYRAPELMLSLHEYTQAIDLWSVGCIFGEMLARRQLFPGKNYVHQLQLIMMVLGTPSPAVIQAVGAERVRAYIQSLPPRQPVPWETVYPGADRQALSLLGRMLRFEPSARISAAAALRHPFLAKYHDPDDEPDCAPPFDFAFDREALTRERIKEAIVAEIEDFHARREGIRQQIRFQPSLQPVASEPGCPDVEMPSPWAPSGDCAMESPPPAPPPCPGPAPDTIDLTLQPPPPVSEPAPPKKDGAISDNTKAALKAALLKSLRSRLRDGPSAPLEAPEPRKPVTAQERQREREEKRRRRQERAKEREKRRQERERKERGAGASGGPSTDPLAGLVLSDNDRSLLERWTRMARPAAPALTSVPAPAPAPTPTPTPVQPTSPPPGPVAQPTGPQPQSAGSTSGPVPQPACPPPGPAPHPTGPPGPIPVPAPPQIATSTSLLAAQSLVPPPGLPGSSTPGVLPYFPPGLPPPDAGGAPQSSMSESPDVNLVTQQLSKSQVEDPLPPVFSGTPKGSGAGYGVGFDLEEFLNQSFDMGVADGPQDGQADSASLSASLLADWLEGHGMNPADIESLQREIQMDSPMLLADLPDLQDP
The settings on record: ERK5; for remaining activity at 1 µM: read-out: % of control at 1 µM.

Test [4] concerns the target T4, panel of 442 kinases (Homo sapiens, UniProt P53779).
T4 construct: purchased Ambit Biosciences (scanMAXX KINOMEscan)
The following applies: kinase JNK3; for remaining activity at 1 µM: read-out: % of control at 1 µM.

Test [5] concerns the target T5, panel of 442 kinases (Homo sapiens, UniProt Q15375).
T5 construct: purchased Ambit Biosciences (scanMAXX KINOMEscan)
The following applies: EPHA7; for remaining activity at 1 µM: read-out: % of control at 1 µM.

The target in test [6] is T6, panel of 442 kinases (Homo sapiens, UniProt Q13043).
T6 construct: purchased Ambit Biosciences (scanMAXX KINOMEscan)
T6 sequence (Q13043 1-487): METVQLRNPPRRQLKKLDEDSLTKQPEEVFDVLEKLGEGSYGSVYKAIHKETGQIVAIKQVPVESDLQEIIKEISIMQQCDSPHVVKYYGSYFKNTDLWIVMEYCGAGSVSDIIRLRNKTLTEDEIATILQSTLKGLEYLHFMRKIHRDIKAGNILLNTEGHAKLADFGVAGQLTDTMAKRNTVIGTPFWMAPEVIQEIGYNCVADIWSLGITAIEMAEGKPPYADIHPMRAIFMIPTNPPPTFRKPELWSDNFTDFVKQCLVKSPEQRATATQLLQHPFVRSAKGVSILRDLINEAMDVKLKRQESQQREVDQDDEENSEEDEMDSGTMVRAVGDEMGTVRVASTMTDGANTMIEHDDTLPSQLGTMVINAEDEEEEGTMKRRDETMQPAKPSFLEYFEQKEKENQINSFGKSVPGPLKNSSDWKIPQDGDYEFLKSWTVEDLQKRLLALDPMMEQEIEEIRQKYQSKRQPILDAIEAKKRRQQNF
The following applies: kinase MST1; for remaining activity at 1 µM: read-out: % of control at 1 µM.

Test [7] has as its target T7, panel of 442 kinases (Homo sapiens, UniProt Q13627).
T7 construct: purchased Ambit Biosciences (scanMAXX KINOMEscan)
The settings on record: DYRK1A; for remaining activity at 1 µM: read-out: % of control at 1 µM.

For test [8], the target named is T8, panel of 442 kinases (Homo sapiens, UniProt P00519, T315I).
T8 construct: purchased Ambit Biosciences (scanMAXX KINOMEscan)
The following applies: for remaining activity at 1 µM: read-out: % of control at 1 µM; for remaining activity at 10 µM: read-out: % of control at 10 µM.

In test [9] the target is T9, panel of 442 kinases (Homo sapiens, UniProt P36888, R834Q).
T9 construct: purchased Ambit Biosciences (scanMAXX KINOMEscan)
T9 sequence (P36888 27-993 R834Q): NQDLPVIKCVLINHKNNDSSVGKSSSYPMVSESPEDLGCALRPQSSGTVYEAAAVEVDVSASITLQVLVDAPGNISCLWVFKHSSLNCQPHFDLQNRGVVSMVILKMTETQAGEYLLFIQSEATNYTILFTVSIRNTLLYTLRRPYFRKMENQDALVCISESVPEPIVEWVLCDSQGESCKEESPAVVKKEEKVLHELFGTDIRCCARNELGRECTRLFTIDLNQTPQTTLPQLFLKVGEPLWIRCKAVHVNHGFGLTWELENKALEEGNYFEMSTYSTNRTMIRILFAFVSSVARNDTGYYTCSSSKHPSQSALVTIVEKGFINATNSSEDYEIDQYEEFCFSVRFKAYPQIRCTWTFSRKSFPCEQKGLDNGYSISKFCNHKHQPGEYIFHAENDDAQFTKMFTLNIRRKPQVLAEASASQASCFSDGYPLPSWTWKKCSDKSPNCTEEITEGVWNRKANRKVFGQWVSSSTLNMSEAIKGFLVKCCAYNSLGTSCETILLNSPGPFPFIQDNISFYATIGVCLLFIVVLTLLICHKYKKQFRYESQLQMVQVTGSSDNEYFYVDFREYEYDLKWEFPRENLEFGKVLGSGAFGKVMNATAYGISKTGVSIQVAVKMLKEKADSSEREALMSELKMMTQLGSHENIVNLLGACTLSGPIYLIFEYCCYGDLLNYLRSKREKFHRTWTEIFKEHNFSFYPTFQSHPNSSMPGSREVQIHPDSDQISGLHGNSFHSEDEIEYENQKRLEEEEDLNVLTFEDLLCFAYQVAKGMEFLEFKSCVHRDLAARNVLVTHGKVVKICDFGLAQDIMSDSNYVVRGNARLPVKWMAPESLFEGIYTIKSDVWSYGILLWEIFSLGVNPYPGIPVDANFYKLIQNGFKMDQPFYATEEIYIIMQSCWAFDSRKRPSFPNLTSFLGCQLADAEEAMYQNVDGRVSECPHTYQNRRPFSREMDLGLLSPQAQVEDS
The following applies: kinase FLT3(R834Q); for remaining activity at 1 µM: read-out: % of control at 1 µM.

In test [10] the target is T10, panel of 442 kinases (Homo sapiens, UniProt Q13555).
T10 construct: purchased Ambit Biosciences (scanMAXX KINOMEscan)
T10 sequence (Q13555 whole entry): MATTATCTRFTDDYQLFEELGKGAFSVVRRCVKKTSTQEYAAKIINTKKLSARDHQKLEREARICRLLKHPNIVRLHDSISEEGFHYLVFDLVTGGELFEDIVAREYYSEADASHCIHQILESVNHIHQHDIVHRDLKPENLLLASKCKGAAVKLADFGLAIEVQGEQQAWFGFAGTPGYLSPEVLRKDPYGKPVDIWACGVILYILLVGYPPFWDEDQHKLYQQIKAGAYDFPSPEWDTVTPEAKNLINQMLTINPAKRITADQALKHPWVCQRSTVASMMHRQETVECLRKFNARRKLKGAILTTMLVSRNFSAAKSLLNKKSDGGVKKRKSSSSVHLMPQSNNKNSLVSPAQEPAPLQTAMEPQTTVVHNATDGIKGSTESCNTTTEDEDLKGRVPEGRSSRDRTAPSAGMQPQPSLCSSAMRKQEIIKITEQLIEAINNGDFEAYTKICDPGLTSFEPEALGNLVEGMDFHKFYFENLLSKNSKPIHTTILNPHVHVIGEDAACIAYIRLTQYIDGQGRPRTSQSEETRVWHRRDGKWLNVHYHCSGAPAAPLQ
The settings on record: CAMK2G; for remaining activity at 1 µM: read-out: % of control at 1 µM.

The target in test [11] is T11, panel of 442 kinases (Homo sapiens, UniProt O00506).
T11 construct: purchased Ambit Biosciences (scanMAXX KINOMEscan)
T11 sequence (O00506 whole entry): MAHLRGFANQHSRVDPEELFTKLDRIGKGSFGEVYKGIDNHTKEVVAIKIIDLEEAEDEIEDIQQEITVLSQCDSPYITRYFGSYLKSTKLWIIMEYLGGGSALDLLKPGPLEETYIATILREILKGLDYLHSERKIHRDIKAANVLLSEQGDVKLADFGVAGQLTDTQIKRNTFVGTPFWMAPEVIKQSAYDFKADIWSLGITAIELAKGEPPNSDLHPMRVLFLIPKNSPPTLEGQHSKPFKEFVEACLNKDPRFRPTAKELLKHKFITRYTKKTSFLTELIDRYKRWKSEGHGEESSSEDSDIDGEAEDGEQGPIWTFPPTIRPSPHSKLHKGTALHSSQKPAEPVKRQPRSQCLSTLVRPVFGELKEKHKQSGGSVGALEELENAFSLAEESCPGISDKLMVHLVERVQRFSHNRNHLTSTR
The following applies: kinase YSK1; for remaining activity at 1 µM: read-out: YSK1 (% of control at 1 µM).

The target of test [12] is T12, panel of 442 kinases (Homo sapiens, UniProt P31751).
T12 construct: purchased Ambit Biosciences (scanMAXX KINOMEscan)
T12 sequence (P31751 whole entry): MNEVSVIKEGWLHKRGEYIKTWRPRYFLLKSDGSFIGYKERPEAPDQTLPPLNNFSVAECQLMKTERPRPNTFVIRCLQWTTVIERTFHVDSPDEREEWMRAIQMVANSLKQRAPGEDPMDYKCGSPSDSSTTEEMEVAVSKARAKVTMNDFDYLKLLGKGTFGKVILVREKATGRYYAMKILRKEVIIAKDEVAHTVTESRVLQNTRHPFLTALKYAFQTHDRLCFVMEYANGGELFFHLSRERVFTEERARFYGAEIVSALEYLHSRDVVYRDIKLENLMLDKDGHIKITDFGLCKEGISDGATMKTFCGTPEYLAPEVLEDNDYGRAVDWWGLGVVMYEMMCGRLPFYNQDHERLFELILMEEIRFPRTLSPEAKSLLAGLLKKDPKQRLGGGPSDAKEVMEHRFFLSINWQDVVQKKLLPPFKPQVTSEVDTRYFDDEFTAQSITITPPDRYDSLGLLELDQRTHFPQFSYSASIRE
The following applies: AKT2; for remaining activity at 1 µM: read-out: % of control at 1 µM.

The target of test [13] is T13, panel of 442 kinases (Homo sapiens, UniProt P46734).
T13 construct: purchased Ambit Biosciences (scanMAXX KINOMEscan)
T13 sequence (P46734 1-347): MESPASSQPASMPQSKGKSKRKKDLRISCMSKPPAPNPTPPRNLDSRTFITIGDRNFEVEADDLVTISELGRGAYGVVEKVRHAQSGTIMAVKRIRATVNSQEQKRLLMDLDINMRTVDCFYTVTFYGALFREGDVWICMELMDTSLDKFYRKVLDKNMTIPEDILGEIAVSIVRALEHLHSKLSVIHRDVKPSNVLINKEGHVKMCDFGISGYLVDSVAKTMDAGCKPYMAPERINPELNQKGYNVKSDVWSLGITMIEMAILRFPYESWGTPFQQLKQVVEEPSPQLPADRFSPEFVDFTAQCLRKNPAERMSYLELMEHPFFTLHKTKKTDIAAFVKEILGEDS
The following applies: kinase MEK3; for remaining activity at 1 µM: read-out: % of control at 1 µM.

The mark [14] stands for this setting: 10 µM, read-out: % of control at 10 µM.

The structures appear in SMILES notation. Read-outs that look alike come from different tables or passages of the source.

T4 sequence (P53779 whole entry): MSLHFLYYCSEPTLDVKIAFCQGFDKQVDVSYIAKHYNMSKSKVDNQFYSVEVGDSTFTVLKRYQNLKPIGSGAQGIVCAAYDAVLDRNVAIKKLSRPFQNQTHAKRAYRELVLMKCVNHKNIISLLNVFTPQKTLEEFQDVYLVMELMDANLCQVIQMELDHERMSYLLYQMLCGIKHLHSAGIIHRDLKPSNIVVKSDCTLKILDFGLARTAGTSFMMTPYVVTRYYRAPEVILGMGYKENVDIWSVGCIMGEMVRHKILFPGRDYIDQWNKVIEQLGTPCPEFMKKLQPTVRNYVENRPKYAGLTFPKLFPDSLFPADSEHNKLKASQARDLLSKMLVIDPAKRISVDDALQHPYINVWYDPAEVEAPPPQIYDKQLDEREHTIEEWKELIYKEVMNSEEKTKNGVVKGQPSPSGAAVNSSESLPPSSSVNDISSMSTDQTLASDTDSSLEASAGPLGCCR
T1 sequence (P37023 22-503): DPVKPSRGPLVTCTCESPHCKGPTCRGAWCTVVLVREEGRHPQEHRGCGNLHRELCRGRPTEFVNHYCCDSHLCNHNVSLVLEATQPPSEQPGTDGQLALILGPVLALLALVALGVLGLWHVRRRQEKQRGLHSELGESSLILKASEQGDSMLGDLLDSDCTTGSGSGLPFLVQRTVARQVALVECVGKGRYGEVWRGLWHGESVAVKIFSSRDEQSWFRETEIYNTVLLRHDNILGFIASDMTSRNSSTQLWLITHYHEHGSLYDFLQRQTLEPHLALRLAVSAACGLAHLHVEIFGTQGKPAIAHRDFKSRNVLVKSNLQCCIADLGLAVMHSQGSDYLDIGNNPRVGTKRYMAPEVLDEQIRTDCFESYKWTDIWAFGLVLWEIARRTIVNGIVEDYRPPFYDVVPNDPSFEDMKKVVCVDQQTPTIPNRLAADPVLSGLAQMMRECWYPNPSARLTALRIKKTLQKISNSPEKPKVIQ
T5 sequence (Q15375 28-998): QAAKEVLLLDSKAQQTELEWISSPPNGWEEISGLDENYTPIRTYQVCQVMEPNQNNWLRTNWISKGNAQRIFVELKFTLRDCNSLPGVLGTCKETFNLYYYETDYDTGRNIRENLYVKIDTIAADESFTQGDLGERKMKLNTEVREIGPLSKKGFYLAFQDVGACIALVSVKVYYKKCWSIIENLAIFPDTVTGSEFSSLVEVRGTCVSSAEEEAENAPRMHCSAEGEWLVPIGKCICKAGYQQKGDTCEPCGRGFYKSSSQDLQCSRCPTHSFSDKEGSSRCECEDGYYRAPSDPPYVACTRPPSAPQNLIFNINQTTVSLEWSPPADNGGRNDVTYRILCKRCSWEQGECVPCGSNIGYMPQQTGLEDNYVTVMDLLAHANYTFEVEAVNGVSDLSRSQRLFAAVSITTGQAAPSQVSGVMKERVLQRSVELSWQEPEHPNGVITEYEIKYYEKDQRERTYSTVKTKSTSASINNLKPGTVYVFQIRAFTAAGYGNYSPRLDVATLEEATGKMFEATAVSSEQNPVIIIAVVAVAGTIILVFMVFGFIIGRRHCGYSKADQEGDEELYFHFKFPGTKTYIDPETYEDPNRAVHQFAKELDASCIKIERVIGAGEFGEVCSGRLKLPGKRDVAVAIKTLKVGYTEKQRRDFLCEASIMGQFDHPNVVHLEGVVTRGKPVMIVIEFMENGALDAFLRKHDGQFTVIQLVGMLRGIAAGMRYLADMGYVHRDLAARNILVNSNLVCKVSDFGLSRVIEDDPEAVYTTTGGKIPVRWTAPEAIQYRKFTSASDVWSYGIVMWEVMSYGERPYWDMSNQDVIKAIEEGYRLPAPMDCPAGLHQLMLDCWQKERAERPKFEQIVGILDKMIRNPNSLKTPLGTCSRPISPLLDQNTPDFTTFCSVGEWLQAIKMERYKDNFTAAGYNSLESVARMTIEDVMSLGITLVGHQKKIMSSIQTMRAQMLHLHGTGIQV
T2 sequence (Q9HC98 whole entry): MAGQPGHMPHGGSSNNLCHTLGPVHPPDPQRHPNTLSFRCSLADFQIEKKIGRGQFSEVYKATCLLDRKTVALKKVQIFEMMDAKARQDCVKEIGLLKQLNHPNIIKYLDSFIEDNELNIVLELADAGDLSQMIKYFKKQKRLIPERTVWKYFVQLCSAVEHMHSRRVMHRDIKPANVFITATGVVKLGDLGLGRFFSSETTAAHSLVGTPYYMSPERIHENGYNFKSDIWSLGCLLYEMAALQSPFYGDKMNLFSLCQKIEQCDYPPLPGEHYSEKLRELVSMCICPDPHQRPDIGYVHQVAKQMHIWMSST

`COc1ncc(-c2ccc3nccc(-c4ccnnc4)c3c2)cc1NS(=O)(=O)c1ccc(F)cc1F` [Omipalisib]: the remaining activity at 1 µM at panel of 442 kinases [1] stood at 100%; on panel of 442 kinases [2], 100%; on panel of 442 kinases [3], 87%; on panel of 442 kinases [4] it was 90%; on panel of 442 kinases [5] it was 100%; at panel of 442 kinases [6] it was 100%. Further, the remaining activity at 1 µM at panel of 442 kinases [7] turned out to be 100%; at panel of 442 kinases [8] (ABL1(T315I)-nonphosphorylated) it was 98%; at panel of 442 kinases [8] (ABL1(T315I)-phosphorylated), 81%; at panel of 442 kinases [9], 100%; on panel of 442 kinases [10], 100%; at panel of 442 kinases [11] it was 91%. The remaining activity at 1 µM stood at 69% at panel of 442 kinases [12] and 46% at panel of 442 kinases [13].
With `Cn1c(=O)n(-c2ccc(C(C)(C)C#N)cc2)c2c3cc(-c4cnc5ccccc5c4)ccc3ncc21` [Dactolisib, 2-methyl-2-[4-(3-methyl-2-oxo-8-quinolin-3-yl-2,3-dihydroimidazo[4,5-c]quinolin-1-yl)-phenyl] propionitrile], the remaining activity at 1 µM on panel of 442 kinases [1] turned out to be 94%; at panel of 442 kinases [2], 100%; at panel of 442 kinases [4] it was 100%; at panel of 442 kinases [5], 100%; on panel of 442 kinases [6], 66%; on panel of 442 kinases [7] it was 100%. Further, the remaining activity at 1 µM came to 58% on panel of 442 kinases [8] (ABL1(T315I)-nonphosphorylated); 88% on panel of 442 kinases [10]; 100% on panel of 442 kinases [11]; 78% on panel of 442 kinases [12]; 96% at panel of 442 kinases [13].
On to `Nc1cc(C(F)(F)F)c(-c2cc(N3CCOCC3)nc(N3CCOCC3)n2)cn1` [Buparlisib], for which the remaining activity at 1 µM was found to be 84% on panel of 442 kinases [1]; 84% at panel of 442 kinases [2]; 84% on panel of 442 kinases [3]; 100% at panel of 442 kinases [4]; 100% at panel of 442 kinases [5]; 95% on panel of 442 kinases [6]. The remaining activity at 1 µM at panel of 442 kinases [7] turned out to be 80%; at panel of 442 kinases [8] (ABL1(T315I)-nonphosphorylated) it was 94%; at panel of 442 kinases [8] (ABL1(T315I)-phosphorylated), 73%; on panel of 442 kinases [9], 100%; at panel of 442 kinases [10], 100%; at panel of 442 kinases [11], 100%. For the same compound, the remaining activity at 1 µM at panel of 442 kinases [12] and on panel of 442 kinases [13] was 100% each time. The remaining activity at 10 µM at panel of 442 kinases [1] (setting [14]), on panel of 442 kinases [2] (setting [14]), on panel of 442 kinases [3] (setting [14]), on panel of 442 kinases [4] (setting [14]), on panel of 442 kinases [5] (setting [14]) and at panel of 442 kinases [6] (setting [14]) was 100% throughout. The remaining activity at 10 µM at panel of 442 kinases [7] (setting [14]) came to 51%; at panel of 442 kinases [8] (ABL1(T315I)-nonphosphorylated) it was 78%; at panel of 442 kinases [8] (ABL1(T315I)-phosphorylated), 100%; on panel of 442 kinases [9] (setting [14]), 100%; at panel of 442 kinases [10] (setting [14]), 100%; at panel of 442 kinases [11] (10 µM, read-out: YSK1 (% of control at 10 µM)) it was 100%. The remaining activity at 10 µM on panel of 442 kinases [12] (setting [14]) and on panel of 442 kinases [13] (setting [14]) was 100% each time.
With `FC(F)c1nc2ccccc2n1-c1nc(N2CCOCC2)nc(N2CCOCC2)n1` [ZSTK474, 2-(difluoromethyl)-1-[4,6-di(4-morpholinyl)-1,3,5-triazin-2-yl]-1H-benzimidazole], the remaining activity at 1 µM at panel of 442 kinases [1] came to 100%; at panel of 442 kinases [2] it was 100%; on panel of 442 kinases [3], 97%; at panel of 442 kinases [4] it was 100%; at panel of 442 kinases [5], 100%; on panel of 442 kinases [6], 53%. Moreover, the remaining activity at 1 µM at panel of 442 kinases [7] came out at 100%; at panel of 442 kinases [8] (ABL1(T315I)-nonphosphorylated), 50%; on panel of 442 kinases [8] (ABL1(T315I)-phosphorylated) it was 100%; on panel of 442 kinases [9], 100%; on panel of 442 kinases [10], 100%; at panel of 442 kinases [11] it was 83%. For the same compound, the remaining activity at 1 µM on panel of 442 kinases [12] was determined as 80%; at panel of 442 kinases [13], 100%.

The values are drawn from article PMC5564600 (Oncotarget, 2017).
